Reference: the kinase profiling compilation of Christmann-Franck et al. (2016)
Blank lines part the entries; values can stand above or below the compound they belong to.

Columns and labels:
Test in all cases: radiometric filter-binding kinase assay
CSNK2A1 (human) = CSNK2A1 (human) (UniProt P68400)
MELK (human) = MELK (human) (UniProt Q14680)
PAK7 (human) = PAK7 (human) (UniProt Q9P286)
CaMK1 (human) = CaMK1 (human) (UniProt Q14012)
HIPK2 (human) = HIPK2 (human) (UniProt Q9H2X6)
YES1 (human) = YES1 (human) (UniProt P07947)
[1] = tested on: AKT1 (human), P31749 [S473D]
SRC (human) = SRC (human) (UniProt P12931)
MAPK15 (human) = MAPK15 (human) (UniProt Q8TD08)
[2] = tested on: PINK1 (Tribolium castaneum); settings: accession and sequence are those of the human protein
MAPK11 (human) = MAPK11 (human) (UniProt Q15759)
MAPKAPK2 (human) = MAPKAPK2 (human) (UniProt P49137)
SYK (human) = SYK (human) (UniProt P43405)
EEF2K (human) = EEF2K (human) (UniProt O00418)
PLK1 (human) = PLK1 (human) (UniProt P53350)
PRKCA (human) = PRKCA (human) (UniProt P17252)
CAMKK2 (human) = CAMKK2 (human) (UniProt Q96RR4)
MYLK (human) = MYLK (human) (UniProt Q15746)
MAP2K1 (human) = MAP2K1 (human) (UniProt Q02750)
PIM2 (human) = PIM2 (human) (UniProt Q9P1W9)
PRKACA (human) = PRKACA (human) (UniProt P17612)
MAPK3 (human) = MAPK3 (human) (UniProt P27361)
MKNK2 (human) = MKNK2 (human) (UniProt Q9HBH9)
ROCK2 (rat) = settings: accession and sequence are those of the human protein
PIM1 (human) = PIM1 (human) (UniProt P11309)
MARK3 (human) = MARK3 (human) (UniProt P27448)
MAPKAPK5 (human) = MAPKAPK5 (human) (UniProt Q8IW41)
PKN2 (human) = PKN2 (human) (UniProt Q16513)
PIM3 (human) = PIM3 (human) (UniProt Q86V86)
CHEK1 (human) = CHEK1 (human) (UniProt O14757)
[3] = tested on: AKT2 (human), P31751 [S474D]
DYRK3 (human) = DYRK3 (human) (UniProt O43781)
DYRK2 (human) = DYRK2 (human) (UniProt Q92630)
TBK1 (human) = TBK1 (human) (UniProt Q9UHD2)
MAPK1 (human) = MAPK1 (human) (UniProt P28482)
[4] = target: PRKAA1 PRKAB2 PRKAG1 (human) (UniProt O43741+Q13131+P54619)
MAPK8 (human) = MAPK8 (human) (UniProt P45983)
NEK2 (human) = NEK2 (human) (UniProt P51955)
NEK6 (human) = NEK6 (human) (UniProt Q9HC98)
MAPK9 (human) = MAPK9 (human) (UniProt P45984)

MAP2K1 (human), sequence (Q02750 whole entry, looked up): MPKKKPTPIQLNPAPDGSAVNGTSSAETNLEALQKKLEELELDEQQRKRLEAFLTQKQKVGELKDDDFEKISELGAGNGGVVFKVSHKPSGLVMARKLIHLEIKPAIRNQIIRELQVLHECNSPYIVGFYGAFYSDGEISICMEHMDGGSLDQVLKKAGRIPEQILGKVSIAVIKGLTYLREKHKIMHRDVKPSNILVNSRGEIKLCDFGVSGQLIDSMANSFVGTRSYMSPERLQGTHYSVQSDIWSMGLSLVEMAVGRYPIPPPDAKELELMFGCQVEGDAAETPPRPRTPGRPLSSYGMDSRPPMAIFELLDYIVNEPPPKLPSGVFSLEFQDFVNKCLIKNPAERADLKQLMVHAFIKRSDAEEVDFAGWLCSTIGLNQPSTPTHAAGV
MYLK (human), sequence (Q15746 whole entry, looked up): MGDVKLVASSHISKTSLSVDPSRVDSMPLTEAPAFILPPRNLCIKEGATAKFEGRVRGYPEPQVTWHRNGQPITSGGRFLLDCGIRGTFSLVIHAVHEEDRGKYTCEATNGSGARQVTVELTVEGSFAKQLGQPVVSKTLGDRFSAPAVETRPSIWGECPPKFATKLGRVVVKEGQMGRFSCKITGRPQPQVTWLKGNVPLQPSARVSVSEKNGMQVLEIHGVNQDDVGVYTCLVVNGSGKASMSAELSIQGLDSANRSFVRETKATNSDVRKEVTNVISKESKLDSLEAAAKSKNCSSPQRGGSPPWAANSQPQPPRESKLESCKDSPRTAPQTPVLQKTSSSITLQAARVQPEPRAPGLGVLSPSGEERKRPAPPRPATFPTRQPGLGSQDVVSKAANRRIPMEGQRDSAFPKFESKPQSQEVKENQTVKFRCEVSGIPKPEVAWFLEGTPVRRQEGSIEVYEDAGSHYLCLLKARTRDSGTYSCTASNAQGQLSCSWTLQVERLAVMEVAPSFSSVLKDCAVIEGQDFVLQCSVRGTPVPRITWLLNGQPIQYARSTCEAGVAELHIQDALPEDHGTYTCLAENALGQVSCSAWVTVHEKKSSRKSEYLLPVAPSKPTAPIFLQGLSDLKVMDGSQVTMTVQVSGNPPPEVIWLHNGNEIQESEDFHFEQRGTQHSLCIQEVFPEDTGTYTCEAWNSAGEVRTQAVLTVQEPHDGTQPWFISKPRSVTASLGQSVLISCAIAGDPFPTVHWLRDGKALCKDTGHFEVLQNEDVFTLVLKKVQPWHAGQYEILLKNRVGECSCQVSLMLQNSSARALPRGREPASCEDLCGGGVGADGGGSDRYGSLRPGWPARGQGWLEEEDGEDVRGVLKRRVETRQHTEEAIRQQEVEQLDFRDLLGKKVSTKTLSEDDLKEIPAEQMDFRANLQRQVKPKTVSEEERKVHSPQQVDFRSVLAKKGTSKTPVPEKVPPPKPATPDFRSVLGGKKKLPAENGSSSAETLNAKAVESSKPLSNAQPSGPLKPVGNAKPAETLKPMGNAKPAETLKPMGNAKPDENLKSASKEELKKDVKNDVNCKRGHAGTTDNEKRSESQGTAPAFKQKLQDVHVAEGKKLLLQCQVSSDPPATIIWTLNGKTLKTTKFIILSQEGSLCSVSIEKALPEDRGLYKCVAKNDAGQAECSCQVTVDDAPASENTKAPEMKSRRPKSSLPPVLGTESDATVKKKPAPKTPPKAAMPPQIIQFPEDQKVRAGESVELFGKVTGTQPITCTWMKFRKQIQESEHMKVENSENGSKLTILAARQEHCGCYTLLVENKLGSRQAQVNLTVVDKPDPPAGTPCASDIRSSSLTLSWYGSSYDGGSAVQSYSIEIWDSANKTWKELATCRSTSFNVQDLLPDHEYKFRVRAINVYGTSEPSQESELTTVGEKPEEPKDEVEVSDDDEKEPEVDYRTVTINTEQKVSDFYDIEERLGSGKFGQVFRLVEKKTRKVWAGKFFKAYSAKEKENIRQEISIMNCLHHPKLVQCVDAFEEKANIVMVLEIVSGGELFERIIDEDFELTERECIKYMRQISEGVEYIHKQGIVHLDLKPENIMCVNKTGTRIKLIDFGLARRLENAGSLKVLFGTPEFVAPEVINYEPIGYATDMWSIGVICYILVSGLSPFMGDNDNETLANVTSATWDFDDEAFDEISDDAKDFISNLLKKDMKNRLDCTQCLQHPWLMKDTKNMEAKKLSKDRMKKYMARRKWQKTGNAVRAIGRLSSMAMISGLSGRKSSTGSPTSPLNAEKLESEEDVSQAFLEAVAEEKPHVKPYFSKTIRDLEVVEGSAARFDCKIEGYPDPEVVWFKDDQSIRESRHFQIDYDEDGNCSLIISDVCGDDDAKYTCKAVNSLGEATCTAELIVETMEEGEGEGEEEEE
MAPK15 (human), sequence (Q8TD08 whole entry, looked up): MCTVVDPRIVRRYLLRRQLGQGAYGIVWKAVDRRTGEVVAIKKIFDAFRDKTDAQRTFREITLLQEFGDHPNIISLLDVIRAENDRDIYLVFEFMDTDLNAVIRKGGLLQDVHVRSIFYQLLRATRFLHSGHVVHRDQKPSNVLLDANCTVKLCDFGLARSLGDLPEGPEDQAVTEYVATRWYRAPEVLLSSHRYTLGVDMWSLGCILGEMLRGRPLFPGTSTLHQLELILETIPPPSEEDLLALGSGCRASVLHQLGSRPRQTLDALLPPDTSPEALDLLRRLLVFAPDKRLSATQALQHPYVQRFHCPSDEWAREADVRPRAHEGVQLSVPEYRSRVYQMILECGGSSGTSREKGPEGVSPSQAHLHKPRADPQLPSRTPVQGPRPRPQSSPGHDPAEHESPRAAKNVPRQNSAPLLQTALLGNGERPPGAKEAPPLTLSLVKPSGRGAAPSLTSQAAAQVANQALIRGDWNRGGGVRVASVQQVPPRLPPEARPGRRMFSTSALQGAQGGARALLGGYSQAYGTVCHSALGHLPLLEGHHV
CHEK1 (human), sequence (O14757 whole entry, looked up): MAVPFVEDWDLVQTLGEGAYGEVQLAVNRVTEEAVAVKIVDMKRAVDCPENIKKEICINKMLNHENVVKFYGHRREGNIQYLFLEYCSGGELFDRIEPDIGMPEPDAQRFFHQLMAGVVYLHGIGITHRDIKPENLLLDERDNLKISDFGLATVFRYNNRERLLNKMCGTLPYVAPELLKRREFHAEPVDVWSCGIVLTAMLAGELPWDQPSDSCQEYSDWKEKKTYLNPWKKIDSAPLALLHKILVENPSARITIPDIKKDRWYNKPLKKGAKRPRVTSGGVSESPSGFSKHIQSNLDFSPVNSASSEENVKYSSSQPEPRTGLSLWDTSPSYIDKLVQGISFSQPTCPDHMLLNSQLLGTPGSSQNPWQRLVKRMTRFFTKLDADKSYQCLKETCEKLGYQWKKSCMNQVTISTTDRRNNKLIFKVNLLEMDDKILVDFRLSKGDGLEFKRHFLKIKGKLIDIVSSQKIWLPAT
MAPK3 (human), sequence (P27361 whole entry, looked up): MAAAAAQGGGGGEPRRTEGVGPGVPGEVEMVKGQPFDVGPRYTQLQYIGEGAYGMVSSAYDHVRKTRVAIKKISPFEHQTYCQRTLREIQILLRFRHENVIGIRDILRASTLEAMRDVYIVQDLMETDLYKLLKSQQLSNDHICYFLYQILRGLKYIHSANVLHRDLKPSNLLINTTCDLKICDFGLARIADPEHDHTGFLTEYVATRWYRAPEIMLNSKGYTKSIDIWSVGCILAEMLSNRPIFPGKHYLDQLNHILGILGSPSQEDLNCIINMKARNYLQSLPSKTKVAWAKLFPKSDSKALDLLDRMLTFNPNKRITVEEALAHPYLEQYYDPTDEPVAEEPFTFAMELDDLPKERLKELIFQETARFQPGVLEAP
MAPK8 (human), sequence (P45983 whole entry, looked up): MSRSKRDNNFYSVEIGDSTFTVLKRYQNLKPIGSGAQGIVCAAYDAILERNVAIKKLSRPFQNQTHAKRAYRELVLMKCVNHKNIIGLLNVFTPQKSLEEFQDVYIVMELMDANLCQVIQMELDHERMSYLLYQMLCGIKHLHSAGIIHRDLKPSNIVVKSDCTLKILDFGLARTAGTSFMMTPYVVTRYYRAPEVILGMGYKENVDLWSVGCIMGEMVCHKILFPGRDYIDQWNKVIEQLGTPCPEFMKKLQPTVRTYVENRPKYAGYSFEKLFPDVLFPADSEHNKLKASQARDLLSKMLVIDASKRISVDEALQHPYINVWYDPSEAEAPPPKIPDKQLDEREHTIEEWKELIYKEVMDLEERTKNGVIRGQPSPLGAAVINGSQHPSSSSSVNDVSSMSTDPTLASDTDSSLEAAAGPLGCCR
PLK1 (human), sequence (P53350 whole entry, looked up): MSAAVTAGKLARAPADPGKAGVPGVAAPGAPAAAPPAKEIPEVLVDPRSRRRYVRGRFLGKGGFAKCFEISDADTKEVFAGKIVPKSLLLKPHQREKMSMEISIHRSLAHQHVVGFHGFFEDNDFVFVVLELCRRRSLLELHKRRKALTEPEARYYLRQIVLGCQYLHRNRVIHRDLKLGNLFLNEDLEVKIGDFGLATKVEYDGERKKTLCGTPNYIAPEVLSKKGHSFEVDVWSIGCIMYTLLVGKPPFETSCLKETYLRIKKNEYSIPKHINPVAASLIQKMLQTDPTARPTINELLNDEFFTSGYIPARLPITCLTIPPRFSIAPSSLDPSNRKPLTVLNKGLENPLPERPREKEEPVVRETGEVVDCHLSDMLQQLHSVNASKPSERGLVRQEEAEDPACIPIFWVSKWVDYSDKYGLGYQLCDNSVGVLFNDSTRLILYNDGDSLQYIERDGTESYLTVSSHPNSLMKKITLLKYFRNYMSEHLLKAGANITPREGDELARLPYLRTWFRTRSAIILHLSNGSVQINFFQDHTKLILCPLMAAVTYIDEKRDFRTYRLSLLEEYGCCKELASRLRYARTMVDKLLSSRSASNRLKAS
NEK6 (human), sequence (Q9HC98 whole entry, looked up): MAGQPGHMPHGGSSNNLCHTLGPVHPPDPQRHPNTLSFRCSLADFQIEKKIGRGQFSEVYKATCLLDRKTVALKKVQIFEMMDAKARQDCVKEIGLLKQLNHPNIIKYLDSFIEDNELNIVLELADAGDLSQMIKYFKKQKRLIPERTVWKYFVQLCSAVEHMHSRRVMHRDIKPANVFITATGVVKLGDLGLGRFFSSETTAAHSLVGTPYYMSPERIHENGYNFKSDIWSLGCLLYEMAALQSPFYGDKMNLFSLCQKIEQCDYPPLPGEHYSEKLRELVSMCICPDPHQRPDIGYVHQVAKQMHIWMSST

IC50 (CSNK2A1 (human)): > 40 µM | residual activity (CSNK2A1 (human); compound 20.0 µM): 52% | residual activity (MELK (human); compound 20.0 µM): 70% | residual activity (PAK7 (human); compound 20.0 µM): 64% | residual activity (CaMK1 (human); compound 20.0 µM): 25% | residual activity (HIPK2 (human); compound 20.0 µM): 62% | residual activity (YES1 (human); compound 20.0 µM): 72% | residual activity ([1]; compound 20.0 µM): 115% | residual activity (SRC (human); compound 20.0 µM): 70% | residual activity ([2]; compound 20.0 µM): 68% | residual activity (MAPK11 (human); compound 20.0 µM): 106% | residual activity (MAPKAPK2 (human); compound 20.0 µM): 48% | residual activity (SYK (human); compound 20.0 µM): 121% | residual activity (EEF2K (human); compound 20.0 µM): 104% | residual activity (PLK1 (human); compound 20.0 µM): 66% | residual activity (PRKCA (human); compound 20.0 µM): 94% | residual activity (CAMKK2 (human); compound 20.0 µM): 91% | residual activity (MYLK (human); compound 20.0 µM): 77% | residual activity (MAP2K1 (human); compound 20.0 µM): 122% | residual activity (PIM2 (human); compound 20.0 µM): 66% | residual activity (PRKACA (human); compound 20.0 µM): 76% | residual activity (MAPK3 (human); compound 20.0 µM): 100% | residual activity (MKNK2 (human); compound 20.0 µM): 65% | residual activity (ROCK2 (rat); compound 20.0 µM): 78% | residual activity (PIM1 (human); compound 20.0 µM): 19% | residual activity (MARK3 (human); compound 20.0 µM): 64% | residual activity (MAPKAPK5 (human); compound 20.0 µM): 61% | residual activity (PKN2 (human); compound 20.0 µM): 86% | residual activity (PIM3 (human); compound 20.0 µM): 21% | residual activity (CHEK1 (human); compound 20.0 µM): 74% | residual activity ([3]; compound 20.0 µM): 80% | residual activity (DYRK3 (human); compound 20.0 µM): 15% | residual activity (DYRK2 (human); compound 20.0 µM): 69% | residual activity (TBK1 (human); compound 20.0 µM): 123% | residual activity (MAPK1 (human); compound 20.0 µM): 101% | residual activity ([4]; compound 20.0 µM): 99% | residual activity (MAPK8 (human); compound 20.0 µM): 97% | residual activity (NEK2 (human); compound 20.0 µM): 84% | residual activity (NEK6 (human); compound 20.0 µM): 78% | residual activity (MAPK9 (human); compound 20.0 µM): 99%
SMILES: Oc1ccc2c(c1)C(O)c1cc(O)ccc1-2
residual activity (MAPK15 (human); compound 20.0 µM): 25%

IC50 (CSNK2A1 (human)): 4 µM | residual activity (CSNK2A1 (human); compound 1.0 µM): 87% | residual activity (MELK (human); compound 1.0 µM): 20% | residual activity (PAK7 (human); compound 1.0 µM): 94% | residual activity (CaMK1 (human); compound 1.0 µM): 72% | residual activity (HIPK2 (human); compound 1.0 µM): 17% | residual activity (YES1 (human); compound 1.0 µM): 95% | residual activity ([1]; compound 1.0 µM): 90% | residual activity (SRC (human); compound 1.0 µM): 85% | residual activity ([2]; compound 1.0 µM): 80% | residual activity (MAPK11 (human); compound 1.0 µM): 87% | residual activity (MAPKAPK2 (human); compound 1.0 µM): 80% | residual activity (SYK (human); compound 1.0 µM): 84% | residual activity (EEF2K (human); compound 1.0 µM): 85% | residual activity (PLK1 (human); compound 1.0 µM): 104% | residual activity (PRKCA (human); compound 1.0 µM): 101% | residual activity (CAMKK2 (human); compound 1.0 µM): 76% | residual activity (MYLK (human); compound 1.0 µM): 46% | residual activity (MAP2K1 (human); compound 1.0 µM): 94% | residual activity (PIM2 (human); compound 1.0 µM): 40% | residual activity (PRKACA (human); compound 1.0 µM): 101% | residual activity (MAPK3 (human); compound 1.0 µM): 86% | residual activity (MKNK2 (human); compound 1.0 µM): 55% | residual activity (ROCK2 (rat); compound 1.0 µM): 92% | residual activity (PIM1 (human); compound 1.0 µM): 10% | residual activity (MARK3 (human); compound 1.0 µM): 80% | residual activity (MAPKAPK5 (human); compound 1.0 µM): 95% | residual activity (PKN2 (human); compound 1.0 µM): 35% | residual activity (PIM3 (human); compound 1.0 µM): 17% | residual activity (CHEK1 (human); compound 1.0 µM): 92% | residual activity ([3]; compound 1.0 µM): 61% | residual activity (DYRK3 (human); compound 1.0 µM): 17% | residual activity (DYRK2 (human); compound 1.0 µM): 5% | residual activity (TBK1 (human); compound 1.0 µM): 80% | residual activity (MAPK1 (human); compound 1.0 µM): 106% | residual activity ([4]; compound 1.0 µM): 91% | residual activity (MAPK8 (human); compound 1.0 µM): 81% | residual activity (NEK2 (human); compound 1.0 µM): 98% | residual activity (NEK6 (human); compound 1.0 µM): 77% | residual activity (MAPK9 (human); compound 1.0 µM): 102%
SMILES: Oc1ccc2c(c1)oc1c3ccccc3c(O)cc21
residual activity (MAPK15 (human); compound 1.0 µM): 37%

SMILES: COc1ccc2c(c1)[nH]c1c(C)nccc12
IC50 (CSNK2A1 (human)): > 40 µM | residual activity (CSNK2A1 (human); compound 1.0 µM): 83% | residual activity (MELK (human); compound 1.0 µM): 93% | residual activity (PAK7 (human); compound 1.0 µM): 90% | residual activity (CaMK1 (human); compound 1.0 µM): 88% | residual activity (HIPK2 (human); compound 1.0 µM): 68% | residual activity (YES1 (human); compound 1.0 µM): 100% | residual activity ([1]; compound 1.0 µM): 100% | residual activity (SRC (human); compound 1.0 µM): 109% | residual activity (MAPK15 (human); compound 1.0 µM): 75% | residual activity ([2]; compound 1.0 µM): 98% | residual activity (MAPK11 (human); compound 1.0 µM): 92% | residual activity (MAPKAPK2 (human); compound 1.0 µM): 87% | residual activity (SYK (human); compound 1.0 µM): 93% | residual activity (EEF2K (human); compound 1.0 µM): 73% | residual activity (PLK1 (human); compound 1.0 µM): 96% | residual activity (PRKCA (human); compound 1.0 µM): 94% | residual activity (CAMKK2 (human); compound 1.0 µM): 97% | residual activity (MYLK (human); compound 1.0 µM): 106% | residual activity (MAP2K1 (human); compound 1.0 µM): 102% | residual activity (PIM2 (human); compound 1.0 µM): 101% | residual activity (PRKACA (human); compound 1.0 µM): 104% | residual activity (MAPK3 (human); compound 1.0 µM): 102% | residual activity (MKNK2 (human); compound 1.0 µM): 84% | residual activity (ROCK2 (rat); compound 1.0 µM): 102% | residual activity (PIM1 (human); compound 1.0 µM): 74% | residual activity (MARK3 (human); compound 1.0 µM): 107% | residual activity (MAPKAPK5 (human); compound 1.0 µM): 97% | residual activity (PKN2 (human); compound 1.0 µM): 61% | residual activity (PIM3 (human); compound 1.0 µM): 74% | residual activity (CHEK1 (human); compound 1.0 µM): 94% | residual activity ([3]; compound 1.0 µM): 84% | residual activity (DYRK3 (human); compound 1.0 µM): 31% | residual activity (DYRK2 (human); compound 1.0 µM): 35% | residual activity (TBK1 (human); compound 1.0 µM): 87% | residual activity (MAPK1 (human); compound 1.0 µM): 100% | residual activity ([4]; compound 1.0 µM): 106% | residual activity (MAPK8 (human); compound 1.0 µM): 70% | residual activity (NEK2 (human); compound 1.0 µM): 115% | residual activity (NEK6 (human); compound 1.0 µM): 88% | residual activity (MAPK9 (human); compound 1.0 µM): 84%
